Experimental data as given in patent US7164024B2, “Benzimidazolone derivatives” (Banyu Pharmaceutical Co., Ltd., priority 2001, dated 2007).

Experiments:
[1] = target: T1, muscarinic acetylcholine receptors of human m2 (Homo sapiens, UniProt P08172); assay: Test on inhibition of binding to muscarinic receptors (m2); settings: human m2 expressed in CHO cells, 0.2 nM [3H]-N-methylscopolamine, 5000 nM GTPγS, 120 minutes at room temperature
T1 construct: purchased Receptor Biology, Inc; host or cells: CHO cells
T1 sequence (P08172 1-466): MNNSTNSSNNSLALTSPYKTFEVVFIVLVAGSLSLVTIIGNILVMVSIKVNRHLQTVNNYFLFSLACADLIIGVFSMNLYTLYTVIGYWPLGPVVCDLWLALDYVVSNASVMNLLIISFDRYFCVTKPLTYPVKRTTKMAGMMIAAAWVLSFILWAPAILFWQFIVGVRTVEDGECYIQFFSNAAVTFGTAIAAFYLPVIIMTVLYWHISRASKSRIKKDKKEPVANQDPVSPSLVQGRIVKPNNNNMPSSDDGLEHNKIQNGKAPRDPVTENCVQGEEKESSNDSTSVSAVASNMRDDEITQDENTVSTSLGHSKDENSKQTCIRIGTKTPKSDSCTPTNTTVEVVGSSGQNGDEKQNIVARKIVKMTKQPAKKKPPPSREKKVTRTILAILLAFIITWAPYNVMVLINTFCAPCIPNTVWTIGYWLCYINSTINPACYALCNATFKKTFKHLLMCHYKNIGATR
Description: (§1) The test was performed according to a modification of the method of Hargreaves, et al. (Br. J. Pharmacol. 107: 494–501, 1992). Namely, muscarinic acetylcholine receptors of human m1, m2, m3, m4 and m5 expressed in CHO cells (Receptor Biology, Inc.) were incubated with 0.2 nM [^3H]-N-methylscopolamine (82Ci/mmol, New England Nuclear, Inc.) and a test compound, either in 0.5 ml of 50 mM Tris-HCI, 10 mM MgCl2, 1 mM EDTA solution (pH 7.4) (human m1, m3 and m5 samples) or in 0.5 ml of 50 mM tris-HCl, 10 mM MgCl2, 1 mM EDTA, 5000 nM GTPγS solution (pH 7.4) (human m2 and m4 samples) for 120 minutes at room temperature (about 20–25° C.), followed by suction filtration over a glass filter (UniFilter plate-GF/C; Packard). Then the filter was washed four times with 1 ml of ice-cooled Tris-HCI buffer and dried at 50° C. for an hour. After adding a scintillator (Microscinti 0; Packard), the radioactivity of [^3H]-N-methylscopolamine binding to the filter was counted with a microplate scintillation counter (TopCount; Packard). Non-specific receptor binding of [^3H]-N-methylscopolamine was measured by adding 1 μM N-methylscopolamine. According to the method of Cheng and Prusoff (Biochem. Pharmacol. 22: 3099–3108, 1973), the binding affinity of each sample compound of the present invention for muscarinic receptors is expressed by inhibition constant (Ki) which is calculated from the concentration (IC50) of the sample compound which achieves 50% inhibition of binding of [^3H]-N-methylscopolamine, the labeled ligand. Smaller inhibition constant (Ki) represents stronger tendency to bind to muscarinic receptors, i.e., a higher binding inhibitory effect.

[2] = target: T2, muscarinic acetylcholine receptors of human m1 (Homo sapiens, UniProt P11229); assay: Test on inhibition of binding to muscarinic receptors (m1); settings: human m1 expressed in CHO cells, 0.2 nM [3H]-N-methylscopolamine, 120 minutes at room temperature
T2 construct: purchased Receptor Biology, Inc; host or cells: CHO cells
T2 sequence (P11229 1-460): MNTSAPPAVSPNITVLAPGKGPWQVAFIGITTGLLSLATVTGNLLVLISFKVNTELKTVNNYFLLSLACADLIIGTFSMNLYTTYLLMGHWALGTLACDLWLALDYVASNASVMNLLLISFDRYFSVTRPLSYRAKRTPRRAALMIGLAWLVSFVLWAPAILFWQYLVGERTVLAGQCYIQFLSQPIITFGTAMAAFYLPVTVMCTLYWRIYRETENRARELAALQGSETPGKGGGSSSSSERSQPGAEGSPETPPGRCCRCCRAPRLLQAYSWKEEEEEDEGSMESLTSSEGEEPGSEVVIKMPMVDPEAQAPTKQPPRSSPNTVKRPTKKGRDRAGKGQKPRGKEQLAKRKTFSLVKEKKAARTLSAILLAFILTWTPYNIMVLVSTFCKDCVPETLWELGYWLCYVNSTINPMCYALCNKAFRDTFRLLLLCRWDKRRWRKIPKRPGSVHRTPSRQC
Description: as §1

[3] = target: T3, muscarinic acetylcholine receptors of human m4 (Homo sapiens, UniProt P08173); assay: Test on inhibition of binding to muscarinic receptors (m4); settings: for Ki: human m4 expressed in CHO cells, 0.2 nM [3H]-N-methylscopolamine, 5000 nM GTPγS, 120 minutes at room temperature; for Selectivity (times) m1/m4: ratio of Ki m1 to Ki m4; for Selectivity (times) m2/m4: ratio of Ki m2 to Ki m4; for Selectivity (times) m3/m4: ratio of Ki m3 to Ki m4; for Selectivity (times) m5/m4: ratio of Ki m5 to Ki m4
T3 construct: purchased Receptor Biology, Inc; host or cells: CHO cells
T3 sequence (P08173 1-479): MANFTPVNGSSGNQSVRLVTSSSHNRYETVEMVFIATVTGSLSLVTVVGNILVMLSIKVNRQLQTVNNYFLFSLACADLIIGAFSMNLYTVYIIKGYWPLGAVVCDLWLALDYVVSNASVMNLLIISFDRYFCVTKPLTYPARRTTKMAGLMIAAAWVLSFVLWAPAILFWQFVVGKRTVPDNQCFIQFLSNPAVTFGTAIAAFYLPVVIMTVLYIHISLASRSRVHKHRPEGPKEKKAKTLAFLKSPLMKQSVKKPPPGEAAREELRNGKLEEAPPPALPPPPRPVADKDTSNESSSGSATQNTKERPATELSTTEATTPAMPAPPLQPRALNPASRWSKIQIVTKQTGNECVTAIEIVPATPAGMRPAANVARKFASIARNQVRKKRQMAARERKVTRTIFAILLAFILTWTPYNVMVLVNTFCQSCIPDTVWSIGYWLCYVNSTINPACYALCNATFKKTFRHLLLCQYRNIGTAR
Description: as §1

[4] = target: T4, muscarinic acetylcholine receptors of human m3 (Homo sapiens, UniProt P20309); assay: Test on inhibition of binding to muscarinic receptors (m3); settings: human m3 expressed in CHO cells, 0.2 nM [3H]-N-methylscopolamine, 120 minutes at room temperature
T4 construct: purchased Receptor Biology, Inc; host or cells: CHO cells
Description: as §1

[5] = target: T5, muscarinic acetylcholine receptors of human m5 (Homo sapiens, UniProt P08912); assay: Test on inhibition of binding to muscarinic receptors (m5); settings: human m5 expressed in CHO cells, 0.2 nM [3H]-N-methylscopolamine, 120 minutes at room temperature
T5 construct: purchased Receptor Biology, Inc; host or cells: CHO cells
T5 sequence (P08912 1-532): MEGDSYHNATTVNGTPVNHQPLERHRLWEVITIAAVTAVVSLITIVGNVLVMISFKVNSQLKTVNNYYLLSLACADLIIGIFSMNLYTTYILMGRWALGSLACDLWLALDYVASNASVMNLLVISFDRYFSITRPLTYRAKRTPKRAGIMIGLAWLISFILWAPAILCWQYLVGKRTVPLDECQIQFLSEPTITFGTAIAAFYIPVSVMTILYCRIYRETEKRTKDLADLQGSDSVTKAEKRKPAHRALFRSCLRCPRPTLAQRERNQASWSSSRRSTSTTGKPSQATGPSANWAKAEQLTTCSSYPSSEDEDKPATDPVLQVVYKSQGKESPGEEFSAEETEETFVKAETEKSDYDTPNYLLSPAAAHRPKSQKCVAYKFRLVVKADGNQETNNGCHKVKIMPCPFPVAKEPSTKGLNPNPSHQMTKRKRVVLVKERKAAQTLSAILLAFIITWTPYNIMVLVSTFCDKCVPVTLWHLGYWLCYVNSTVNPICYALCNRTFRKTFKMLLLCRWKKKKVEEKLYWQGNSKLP
Description: as §1

T4 sequence (P20309 whole entry): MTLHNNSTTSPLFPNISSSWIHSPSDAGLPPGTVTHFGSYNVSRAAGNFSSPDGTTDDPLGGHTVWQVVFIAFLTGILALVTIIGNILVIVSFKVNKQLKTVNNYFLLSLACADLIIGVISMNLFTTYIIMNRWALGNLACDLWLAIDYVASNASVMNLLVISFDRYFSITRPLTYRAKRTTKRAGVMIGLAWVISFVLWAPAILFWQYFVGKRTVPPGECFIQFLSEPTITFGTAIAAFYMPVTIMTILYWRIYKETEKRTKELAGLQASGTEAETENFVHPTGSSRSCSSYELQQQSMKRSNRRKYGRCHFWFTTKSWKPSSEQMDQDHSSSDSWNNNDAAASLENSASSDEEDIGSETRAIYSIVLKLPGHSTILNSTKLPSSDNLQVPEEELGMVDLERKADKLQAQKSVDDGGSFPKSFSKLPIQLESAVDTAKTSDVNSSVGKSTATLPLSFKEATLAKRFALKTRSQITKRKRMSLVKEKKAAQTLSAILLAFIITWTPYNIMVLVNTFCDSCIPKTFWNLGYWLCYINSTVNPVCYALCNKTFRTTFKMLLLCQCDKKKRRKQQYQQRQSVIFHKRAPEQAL

| Ki [1] | Ki [2] | Ki [3] | Selectivity (times) m1/m4 [3] | Selectivity (times) m2/m4 [3] | Selectivity (times) m3/m4 [3] | Selectivity (times) m5/m4 [3] | Ki [4] | Ki [5] | SMILES |
| --- | --- | --- | --- | --- | --- | --- | --- | --- | --- |
| 24 nM | 22 nM | 2.3 nM | 9.7 times | 11 times | 2000 times | 99 times | 4500 nM | 220 nM | CC(CN1CCC(n2c(=O)[nH]c3ccccc32)CC1)C1CCN(C(=O)c2cccnc2)CC1 (stereo not drawn) [Example 12, 1-[1-[2-[1-(3-Pyridylcarbonyl)piperidin-4-yl]propyl]piperidin-4-yl]-1,3-dihydro-2H-benzimidazol-2-one] |
| 73 nM | 28 nM | 4.5 nM | 6.1 times | 16 times | 1600 times | 57 times | 7400 nM | 260 nM | O=C(c1cnccn1)N1CCC(CCN2CCC(n3c(=O)[nH]c4ccccc43)CC2)CC1 [Example 4, 1-[1-[2-[1-(Pyrazinylcarbonyl)piperidin-4-yl]ethyl]piperidin-4-yl]-1,3-dihydro-2H-benzimidazol-2-one] |
| 31 nM | 25 nM | 1.7 nM | 15 times | 19 times | 1000 times | 270 times | 1700 nM | 450 nM | O=C(c1cccnc1)N1CCCC(CCN2CCC(n3c(=O)[nH]c4ccccc43)CC2)CC1 (single isomer, unassigned) [Example 9, (S*)-1-[1-[2-[1-(3-pyridylcarbonyl)perhydroazepin-4-yl]ethyl]piperidin-4-yl]-1,3-dihydro-2H-benzimidazol-2-one] |
